Assay results as given in patent US11807608B2, “Polymerizable compounds with one or more surfactant-like properties” (University of Manitoba, priority 2017, dated 2023).

Test: Surface tension by Wilhelmy plate (KRUSS K100 Tensiometer, ASTM D1331-14)
Assay type: physicochemical
Source text: A KRUSS K100 Tensiometer was used to determine the surface tension of a sample of the compounds in liquid water at different concentrations. The concentrations tested were 0.5%, 1.0%, 3.0%, 5.0% and 10%. A platinum plate with dimensions of about 19.9 mm×about 0.2 mm×about 10 mm (width, thickness and height respectfully) was attached to a sensitive mass balance. The sample was raised to the fixed platinum plate at a rate of 10 mm/min with a detection sensitivity of 0.005 g until the liquid sample reached the bottom of the plate. The plate was then immersed in the liquid sample at a depth of 2 mm for 60-150 seconds and any change in mass was recorded by the equipment as a function of time. Force was determined using the equation f=ma.
The surface tension (γ) of each liquid sample was calculated from the force measurement (f) using the equation outlined in Method C: Surface Tension by Wilhelmy plate, ASTM D1331-14.
[formula] where (l) is the length and (t) is the thickness of the plate. The contact angle was assumed to be 0. The test results describe a trend and general indication of the surfactant properties of each compound tested.

[1] = 0.5% in water, 150 second measurement
[2] = 1.0% in water, 150 second measurement
[3] = 3.0% in water, 150 second measurement
[4] = 5.0% in water, 150 second measurement
[5] = 10.0% in water, 150 second measurement

Compound	Surface Tension Mean [1]	Surface Tension Mean [2]	Surface Tension Mean [3]	Surface Tension Mean [4]	Surface Tension Mean [5]	Surface Tension Mean (0.5% in water, 60 second measurement)	Surface Tension Mean (1.0% in water, 60 second measurement)	Surface Tension Mean (3.0% in water, 60 second measurement)	Surface Tension Mean (5.0% in water, 60 second measurement)	Surface Tension Mean (10.0% in water, 60 second measurement)
C=C(C)C(=O)OCC[N+](C)(C)CCCCCCCCCC[N+](C)(C)C1CC(C)(C)NC(C)(C)C1.[Br-].[Br-] [Formula 6]	47.18 mN/m	39.51 mN/m	36.93 mN/m	35.50 mN/m	36.39 mN/m	–	–	–	–	–
C=C(C)C(=O)OCCCCCCCCCCC[N+](C)(C)C1CC(C)(C)NC(C)(C)C1.[Br-] [Formula 9]	37.16 mN/m	36.19 mN/m	35.80 mN/m	35.84 mN/m	30.44 mN/m	–	–	–	–	–
C=C(C)C(=O)NCCC[N+](C)(C)CCCCCCCCCC[N+](C)(C)C1CC(C)(C)NC(C)(C)C1.[Br-].[Br-] [Formula 5, PIP-C10-C3-methyl, methyl, acrylamide]	–	–	–	–	–	36.93 mN/m	32.55 mN/m	31.23 mN/m	30.28 mN/m	29.57 mN/m
